Legend:
HCT116 = HCT116 IC50; format: cell-based; conditions: Homo sapiens, HCT-116
HDAC-1 = target: T1, HDAC-1 (Homo sapiens, UniProt Q13547); experiment: HDAC Inhibition Assay (purified GST-HDAC protein); format: biochemical
T1 construct: made in house; host or cells: Sf9 or Sf21 insect cells (baculovirus, donor vector pFB-GSTX3)
From the text: The baculovirus donor vector pFB-GSTX3 is used to generate a recombinant baculovirus that can express the HDAC polypeptide. Transfer vectors containing the HDAC coding region are transfected into the DH10Bac cell line (GIBCO) and plated on selective agar plates. Colonies without insertion of the fusion sequence into the viral genome (carried by the bacteria) are blue. Single, white colonies are picked and viral DNAs (bacmid) are isolated from the bacteria by standard plasmid purification procedures. Sf9 cells or Sf21 (American Type Culture Collection) cells are then transfected in […] flasks with the viral DNA using Cellfectin reagent.
Virus-containing media is collected from the transfected cell culture and used for infection to increase its titer. Virus-containing media obtained after two rounds of infection is used for large-scale protein expression. For large-scale protein expression 100 cm^2 round tissue culture plates are seeded with 5×10^7 cells/plate and infected with 1 mL of virus-containing media (at an approximately MOI of 5). After 3 days, the cells are scraped off the plate and centrifuged at 500 rpm for 5 minutes. Cell pellets from 10-20, 100 cm^2 plates, are re-suspended in 50 mL of ice-cold lysis buffer (25 mM tris-HCl, pH 7.5, 2 mM EDTA, 1% NP-40, 1 mM DTT, 1 mM P MSF). The cells are stirred on ice for 15 minutes and then centrifuged at 5,000 rpms for 20 minutes.
The centrifuged cell lysate is loaded onto a 2 mL glutathione-sepharose column (Pharmacia) and is washed thrice with 10 mL of 25 mM tris-HCl, pH 7.5, 2 mM EDTA, 1 mM DTT, 200 mM NaCl. The GST-tagged proteins are then eluted by 10 applications (1 mL each) of 25 mM tris-HCl, pH 7.5, 10 mM reduced-glutathione, 100 mM NaCl, 1 mM DTT, 10% glycerol and stored at −70° C.
HDAC assays with purified GST-HDAC protein are carried out in a final volume of 30 μL containing 15 ng of GST-HDAC protein, 20 mM tris-HCl, pH 7.5, 1 mM MnCl2, 10 mM MgCl2, 1 mM DTT, 3 μg/mL poly(Glu,Tyr) 4:1, 1% DMSO, 2.0 μM ATP (γ-[^33P]-ATP 0.1 μCi). The activity is assayed in the presence or absence of inhibitors. […] Subsequently, […] of the reaction mixture are transferred onto EMMOBILON-PVDF membrane (Millipore) previously soaked for 5 minutes with methanol, rinsed with water, then soaked for 5 minutes with 0.5% H3PO4 and mounted on vacuum manifold with disconnected vacuum source. After spotting all samples, a vacuum is connected and each well rinsed with 200 μL 0.5% H3PO4. Membranes are removed and washed four times on a shaker with 1.0% H3PO4, once with ethanol. Membranes are counted after drying at ambient temperature, mounting in Packard TopCount 96-well frame, and addition of 10 μL/well of MICROSCINT™ (Packard).
• Input: 3×4 μL stopped assay on IMMOBILON membrane, not washed • Background (3 wells): assay with H2O instead of enzyme • Positive control (4 wells): 3% DMSO instead of compound • Bath control (1 well): no reaction mix
In each experiment, the actual inhibition by reference compound is used for normalization of IC50 values to the basis of an average value of the reference inhibitor:
Normalized IC50=measured IC50 average ref. IC50/measured ref. IC50

T1 sequence (Q13547 whole entry, species assumed): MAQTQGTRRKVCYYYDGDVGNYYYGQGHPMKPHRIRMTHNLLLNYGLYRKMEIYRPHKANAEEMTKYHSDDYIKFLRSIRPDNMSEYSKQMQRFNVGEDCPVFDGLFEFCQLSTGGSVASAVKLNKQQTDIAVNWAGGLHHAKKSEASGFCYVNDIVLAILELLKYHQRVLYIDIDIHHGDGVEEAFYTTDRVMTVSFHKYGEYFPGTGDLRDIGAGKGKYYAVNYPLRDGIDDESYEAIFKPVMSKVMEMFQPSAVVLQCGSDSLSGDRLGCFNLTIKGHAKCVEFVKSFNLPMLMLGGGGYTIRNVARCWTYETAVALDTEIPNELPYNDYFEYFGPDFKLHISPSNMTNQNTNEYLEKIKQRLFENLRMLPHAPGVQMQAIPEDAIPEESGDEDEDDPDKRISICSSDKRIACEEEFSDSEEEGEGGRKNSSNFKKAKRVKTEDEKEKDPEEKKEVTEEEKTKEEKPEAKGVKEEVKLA

Row | Structure (SMILES) | IC50 (HCT116) | IC50 (HDAC-1)
1 | CC(C)(C)c1[nH]c2ccccc2c1[C@@H]1CCCN(Cc2ccc(/C=C/C(=O)NO)cc2F)C1 [Compound 11, (E)-3-{4-[(S)-3-(2-tert-Butyl-1H-indol-3-yl)-piperidin-1-ylmethyl]-3-fluoro-phenyl}-N-hydroxy-acrylamide] | 0.8 nM | 
2 | O=C(/C=C/c1ccc(CN2CCCC(c3c(-c4ccccc4)[nH]c4ccccc34)C2)c(F)c1)NO (stereo not drawn) [Compound 15, (E)-3-{3-Fluoro-4-[3-(2-phenyl-1H-indol-3-yl)-piperidin-1-ylmethyl]-phenyl}-N-hydroxy-acrylamide] | 5.2 nM | 11 nM
3 | CCOC(=O)c1[nH]c2ccccc2c1C1CCCN(Cc2ccc(/C=C/C(=O)NO)cc2F)C1 (stereo not drawn) [Compound 17, 3-{1-[2-Fluoro-4-((E)-2-hydroxycarbamoyl-vinyl)-benzyl]-piperidin-3-yl}-1H-indole-2-carboxylic acid ethyl ester] | 14 nM | 44 nM
4 | O=C(/C=C/c1ccc(CN2CCCC(c3c(C(=O)NO)[nH]c4ccccc34)C2)c(F)c1)NO (stereo not drawn) [Compound 18, 3-{1-[2-Fluoro-4-((E)-2-hydroxycarbamoyl-vinyl)-benzyl]-piperidin-3-yl}-1H-indole-2-carboxylic acid hydroxyamide] | 37 nM | 31 nM
5 | O=C(/C=C/c1ccc(CN2CCCC(c3c(C(=O)N4CCOCC4)[nH]c4ccccc34)C2)c(F)c1)NO (stereo not drawn) [Compound 19, (E)-3-(3-Fluoro-4-{3-[2-(morpholine-4-carbonyl)-1H-indol-3-yl]-piperidin-1-ylmethyl}-phenyl)-N-hydroxy-acrylamide] | 500 nM | 22 nM
6 | O=C(/C=C/c1ccc(CN2CCOC(c3cc(-c4ccccc4)no3)C2)cc1)NO (stereo not drawn) [Compound 24, (E)-N-Hydroxy-3-{4-[2-(3-phenyl-isoxazol-5-yl)-morpholin-4-ylmethyl]-phenyl}-acrylamide] | 470 nM | 32 nM
7 | O=C(/C=C/c1ccc(CN2CCN(S(=O)(=O)c3ccc(F)cc3)CC2)cc1)NO [Compound 57, (E)-3-{4-[4-(4-Fluoro-benzenesulfonyl)-piperazin-1-ylmethyl]-phenyl}-N-hydroxy-acrylamide] |  | 260 nM
8 | O=C(/C=C/c1ccc(CN2CCN(S(=O)(=O)c3ccccc3)c3ccccc32)cc1)NO [Compound 58, (E)-3-[4-(4-Benzenesulfonyl-3,4-dihydro-2H-quinoxalin-1-ylmethyl)-phenyl]-N-hydroxy-acrylamide] |  | 290 nM
9 | O=C(/C=C/c1ccc(CN2CCN(C(=O)Nc3ccccc3)c3ccccc32)cc1)NO [Compound 59, 4-[4-((E)-2-Hydroxycarbamoyl-vinyl)-benzyl]-3,4-dihydro-2H-quinoxaline-1-carboxylic acid phenylamide] |  | 320 nM
10 | O=C(/C=C/c1ccc(CN2CCN(C(=O)C3CCCCC3)c3ccccc32)cc1)NO [Compound 60, (E)-3-[4-(4-Cyclohexanecarbonyl-3,4-dihydro-2H-quinoxalin-1-ylmethyl)-phenyl]-N-hydroxy-acrylamide] |  | 220 nM
11 | O=C(/C=C/c1ccc(CN2CCN(C(=O)NCc3ccccc3)c3ccccc32)cc1)NO [Compound 61, 4-[4-((E)-2-Hydroxycarbamoyl-vinyl)-benzyl]-3,4-dihydro-2H-quinoxaline-l-carboxylic acid benzylamide] |  | 250 nM

The remaining lines, values ahead:

Row | IC50 (HCT116) | IC50 (HDAC-1) | Structure (SMILES)
12 | 32 nM | 9 nM | O=C(/C=C/c1ccc(CN2CCCC(c3c[nH]c4ccccc34)C2)cc1)NO (stereo not drawn) [Compound 2, (E)-N-Hydroxy-3-{4-[3-(1H-indol-3-yl)-piperidin-1-ylmethyl]-phenyl}-acrylamide]
13 | 12 nM | 6 nM | Cc1[nH]c2ccccc2c1[C@H]1CCCN(Cc2ccc(/C=C/C(=O)NO)cc2)C1 [Compound 3, (E)-N-Hydroxy-3-{4-[(R)-3-(2-methyl-1H-indol-3-yl)-piperidin-1-ylmethyl]-phenyl}-acrylamide]
14 | 13 nM | 11 nM | Cc1[nH]c2ccc(N3CCOCC3)cc2c1C1CCCN(Cc2ccc(/C=C/C(=O)NO)cc2F)C1 (stereo not drawn) [Compound 4, (E)-3-{3-Fluoro-4-[3-(2-methyl-5-morpholin-4-yl-1H-indol-3-yl)-piperidin-1-ylmethyl]-phenyl}-N-hydroxy-acrylamide]
15 | 2.1 nM | 6 nM | O=C(/C=C/c1ccc(CN2CCCC(c3c(-c4ccccc4)[nH]c4ccccc34)C2)cc1)NO (stereo not drawn) [Compound 5, (E)-N-Hydroxy-3-{4-[3-(2-phenyl-1H-indol-3-yl)-piperidin-1-ylmethyl]-phenyl}-acrylamide]
16 | 0.3 nM | 3 nM | CC(C)(C)c1[nH]c2ccccc2c1C1CCCN(Cc2ccc(/C=C/C(=O)NO)cc2)C1 (stereo not drawn) [Compound 6, (E)-3-{4-[3-(2-tert-Butyl-1H-indol-3-yl)-piperidin-1-ylmethyl]-phenyl}-N-hydroxy-acrylamide]
17 | 12 nM | 9 nM | CC(C)(C)c1[nH]c2ccccc2c1C1=CCCN(Cc2ccc(/C=C/C(=O)NO)cc2)C1 [Compound 7, (E)-3-{4-[5-(2-tert-Butyl-1H-indol-3-yl)-3,6-dihydro-2H-pyridin-1-ylmethyl]-phenyl}-N-hydroxy-acrylamide]
18 | 300 nM | 17 nM | Cc1[nH]c2ccccc2c1C1C/C(=N/O)CN(Cc2ccc(/C=C/C(=O)NO)cc2)C1 (stereo not drawn) [Compound 8, (E)-N-Hydroxy-3-{4-[3-[(Z)-hydroxyimino]-5-(2-methyl-1H-indol-3-yl)-piperidin-1-ylmethyl]-phenyl}-acrylamide]
19 | 48 nM | 8 nM | O=C(/C=C/c1ccc(CN2CCCC(C3C(=O)Nc4ccccc43)C2)cc1)NO (stereo not drawn) [Compound 9, (E)-N-Hydroxy-3-{4-[3-(2-oxo-2,3-dihydro-1H-indol-3-yl)-piperidin-1-ylmethyl]-phenyl}-acrylamide]
20 | 5 nM | 19 nM | CC(C)(C)c1[nH]c2ccccc2c1C1CCCN(Cc2ccc(/C=C/C(=O)NO)cc2Cl)C1 (stereo not drawn) [Compound 12, (E)-3-{4-[3-(2-tert-Butyl-1H-indol-3-yl)-piperidin-1-ylmethyl]-3-chloro-phenyl}-N-hydroxy-acrylamide]
21 | 2.8 nM | 6 nM | CC(C)(O)c1[nH]c2ccccc2c1C1CCCN(Cc2ccc(/C=C/C(=O)NO)cc2F)C1 (stereo not drawn) [Compound 13, (E)-3-(3-Fluoro-4-{3-[2-(1-hydroxy-1-methyl-ethyl)-1H-indol-3-yl]-piperidin-1-ylmethyl}-phenyl)-N-hydroxy-acrylamide]
22 | 6 nM | 7 nM | C=C(C)c1[nH]c2ccccc2c1C1CCCN(Cc2ccc(/C=C/C(=O)NO)cc2F)C1 (stereo not drawn) [Compound 14, (E)-3-{3-Fluoro-4-[3-(2-isopropenyl-1H-indol-3-yl)-piperidin-1-ylmethyl]-phenyl}-N-hydroxy-acrylamide]
23 | 13 nM | 7 nM | Cc1[nH]c2ccc(N3CCOCC3)cc2c1C1CCCN(Cc2ccc(/C=C/C(=O)NO)cc2)C1 (stereo not drawn) [Compound 20, (E)-N-Hydroxy-3-{4-[3-(2-methyl-5-morpholin-4-yl-1H-indol-3-yl)-piperidin-1-ylmethyl]-phenyl}-acrylamide]
24 | 21 nM | 6 nM | CC(C)c1[nH]c2ccccc2c1C1CCCN(Cc2ccc(CCC(=O)NO)cc2F)C1 (stereo not drawn) [Compound 21, 3-{3-Fluoro-4-[3-(2-isopropyl-1H-indol-3-yl)-piperidin-1-ylmethyl]-phenyl}-N-hydroxy-propionamide]
